From patent publication US20170216426A1, “COMPOSITIONS AND METHODS FOR TRANSIENT IMMUNE RESPONSE MODULATION DURING VACCINATION” (priority 2014, published 2017)
Entries after “also recorded” stand apart in the source; their conditions may differ.

Columns and labels:
[1] = tested on: 3H9 mice
Description: Specific B-lineage developmental compartments were identified as described^1: CD43^+ B (pre-pro-B and pro-B; B220^lowCD93^+IgM^−IgD^−CD43^+), large pre-B (B220^lowCD93^+IgM^− IgD^−CD43^−FSC^high), small pre-B (B220^lowCD93^+IgM^−IgD^−CD43^−FSC^low), immature/T1 B (B220^lowCD93^+IgM^+IgD^+/−CD21^−CD23^−) and mature B (B220^hiCD93^−) cells in bone marrow, and splenic MF B (B220^hiCD93^−IgM^intIgD^hiCD21^intCD23^hi) cells of naïve mice, and germinal center B (GL-7^+B220^highFas^+IgD^−) cells in spleen of NP-CGG/alum immunized mice. Specific developmental compartments were designated for B6, and then identical gatings were used for all samples. Cells that take up propidium iodide were excluded from our analyses. Labeled cells were analyzed/sorted in a FACS Canto (BD Bioscience) or FACS Vantage with DIVA option (BD Bioscience). Flow cytometric data were analyzed with FlowJo software (Treestar Inc.).

[2] = tested on: 3H9 mice; assay: DNA avidity index of single immature/T1 B-cell N-cultures from treated 3H9 mice (ELISA); assay type: in vivo
Protocol: Single immature/T1 B cells and MF B cells from unimmunized B6 and Myd88^−/− mice, and control- and chloroquine-treated 3H9 mice were expanded in the presence of NB-21.2D9 feeder cells (N-cultures). Briefly, single immature/T1 B cells and MF B cells were directly sorted into each well of 96-well plates and cultured in the presence of exogenous recombinant IL-4 (2 ng/ml, Peprotech) and CD154-/BAFF-/IL-21-expressing NB-21.2D9 cells in RPMI 1640 (Invitrogen) supplemented with 10% HyClone FBS (Thermo scientific), 2-mercaptoethanol (5.5×10^−5 M), penicillin (100 units/ml), streptomycin (100 μg/ml), HEPES (10 mM), sodiumpyruvate (1 mM), and MEM nonessential amino acid (1×; all Invitrogen). Two thirds of culture media were replaced with fresh media daily from day 2 to day 8. On days 9-10, culture supernatants were harvested for ELISA determinations.
Concentrations of total IgG in culture supernatants were determined by standard ELISA. Briefly, 96-well ELISA plates (Corning) were coated with anti-mouse Igκ Ab and anti-mouse Igλ Ab (2 μg/ml each; Southern Biotech) in carbonate buffer for overnight. After washing, plates were blocked with PBS containing 0.5% BSA for 1 h. Diluted samples (at 1:100 and 1:1,000 dilutions in PBS containing 0.5% BSA and 0.1% Tween-20) and serially diluted standard anti-DNA mAb (HYB331-01; Abcam) were then applied to the plates and incubated for overnight. After washing, HRP-conjugated anti-mouse IgG (Southern Biotech) was added to the plates and incubated for 2 h. The HRP-activity was visualized with TMB substrate reagents (Biolegend) and OD450-OD620 was measured by spectrophotometer (Bio-Rad).
Anti-DNA IgG was measured by ELISA^19. […] Bound IgG was detected by HRP-conjugated anti-mouse IgG and TMB substrates as described above. […]
DNA avidity index, [anti-DNA IgG]/[total IgG], represents proportion of DNA-binding IgG to total IgG in reference to the anti-DNA mAb. To compare DNA avidity indices of individual immature/T1 B cells from control- and chloroquine-treated 3H9 mice, culture supernatant samples that contain total IgG (range: 1-3 μg/ml) were analyzed. […]

[3] = Humoral responses after chloroquine treatment (FIG. 17); assay type: in vivo
[4] = tested on: immature/T1 B cells; assay: AID mRNA expression in cultured immature/T1 B cells (quantitative RT-PCR); assay type: cell-based, mice
Protocol: Twenty-four hours after culture, B cells were harvested in TRIzol-LS reagent for AID mRNA quantification.
Expression of AID mRNA was determined by a quantitative RT-PCR^1. Briefly, sorted immature/T1 and mature follicular B cells were lysed in TRIzol LS before and after cultures. Total RNA was prepared from these cells using standard phenol/chloroform extraction method, and then cDNA was prepared using SuperScript III reverse transcriptase (Invitrogen) with oligo(dT)20 primers (Invitrogen). One-twentieth volume of cDNA samples were amplified in a primary PCR using Ramp-Taq DNA polymerase (Denville Scientific) with AID118 and AID119 primers^14. Primary PCR condition: initial incubation of 95° C. for 7 min followed by 15 cycles of amplification steps (95° C. for 30 s, 58° C. for 20 sec, and 72° C. for 45 sec.). Primary PCR products were then subjected to quantitative PCR using SYBR Green core reagents and AIDF2/AIDR2 primers^5.

[5] = tested on: 2F5 dKI mice; conditions: 2F5 dKI mice treated with chloroquine for one week
[6] = tested on: 2F5 dKI mice; assay: Spleen B-cell numbers and GC responses in 2F5 dKI mice after chloroquine, MPER liposome immunization and anti-CD25 Ab (FIG. 20); assay type: in vivo
[7] = tested on: human CD40 expressing HEK blue cells; assay: HEK-Blue CD40L cells SEAP reporter assay of CD40L bioactivity; assay type: cell-based; conditions: liposome-conjugated vs non-conjugated
Description: HEK-Blue CD40L cells (Invivogen) were used to measure the bioactivity of CD40L through the secretion of embryonic alkaline phosphatase (SEAP) upon NF-κB activation following CD40 stimulation.

[8] = chloroquine-treated vs control 3H9 mice

CCN(CC)CCCC(C)Nc1ccnc2cc(Cl)ccc12 (stereo not shown) [chloroquine]
numbers of large- and small pre-B cells ([1]; 3H9 mice, multiple i.p. injections of chloroquine for up to 8 days, bone marrow): decreased | central B-cell tolerance ([1]; mice treated with chloroquine): relaxed | frequency of immature/T1 B cells with higher DNA avidity ([2]; DNA avidity index 0.178 cut-off (average of control 3H9), chloroquine-treated 3H9 mice): increased | average anti-DNA avidity indices of individual immature/T1 B cells [2, 8]: significantly higher; also recorded: more avidly | distribution of anti-DNA avidity indices [2, 8]: shifted toward higher avidity cohorts | duration of suppression of humoral responses [3]: < 1 week | AID expression in immature/T1 B cells elevated by CpG or CpG+anti-μ stimulation ([4]; in the presence of 2.0 μg/ml of chloroquine, 24 h culture): abrogated | synergistic AID up-regulation ([4]; in vitro): blocked | splenic mature B-cell compartments [5]: increases | absolute cell numbers of splenic transitional-1 (T1) and T2 ([6]; consecutive injections with chloroquine and MPER liposome, 14 days after last chloroquine injection, 12 days after immunization): increased | tolerizing deletion of 2F5 dKI B cells ([6]; injections of chloroquine): release | GC responses ([6]; vs controls (PBS+control IgG), after MPER liposome immunization): abolished

CCCCO [n-butanol]
AID expression in immature/T1 B cells stimulated with CpG ([4]; addition of n-butanol (0.1, 0.3, 1.0%)): did not significantly change | synergistic effects of CpG and anti-μ co-stimulation on AID expression in immature/T1 B cells ([4]; n-butanol at 1.0%): completely abrogated | synergistic effects of CpG and anti-μ co-stimulation on AID expression in immature/T1 B cells ([4]; n-butanol, dose-dependent): suppressed

B1: CD40L: CD40 ligand conjugated to liposomes (protein, UniProt P29965 113-261, looked up)
CD40 ligand, soluble form: MQKGDQNPQIAAHVISEASSKTTSVLQWAEKGYYTMSNNLVTLENGKQLTVKRQGLYYIYAQVTFCSNREASSQAPFIASLCLKSPGRFERILLRAANTHSSAKPCGQQSIHLGGVFELQPGASVFVNVTDPSQVSHGTGFTSFGLLKL
modifications: conjugated to liposomes
effect of liposome conjugation on CD40 activation [7]: enhances
